# Test results published in patent US8450313B2, “2,3-diaryl- or heteroaryl-substituted 1,1,1-trifluoro-2-hydroxypropyl compounds” (Hoffmann-La Roche Inc., priority 2009, dated 2013).
# Target: T1, full length human recombinant glucocorticoid receptor (Homo sapiens, UniProt P04150)
# T1 construct: It contains some partially purified full length human recombinant glucocorticoid receptor; purchased Panvera/Invitrogen PV4302
# T1 sequence (P04150 1-777): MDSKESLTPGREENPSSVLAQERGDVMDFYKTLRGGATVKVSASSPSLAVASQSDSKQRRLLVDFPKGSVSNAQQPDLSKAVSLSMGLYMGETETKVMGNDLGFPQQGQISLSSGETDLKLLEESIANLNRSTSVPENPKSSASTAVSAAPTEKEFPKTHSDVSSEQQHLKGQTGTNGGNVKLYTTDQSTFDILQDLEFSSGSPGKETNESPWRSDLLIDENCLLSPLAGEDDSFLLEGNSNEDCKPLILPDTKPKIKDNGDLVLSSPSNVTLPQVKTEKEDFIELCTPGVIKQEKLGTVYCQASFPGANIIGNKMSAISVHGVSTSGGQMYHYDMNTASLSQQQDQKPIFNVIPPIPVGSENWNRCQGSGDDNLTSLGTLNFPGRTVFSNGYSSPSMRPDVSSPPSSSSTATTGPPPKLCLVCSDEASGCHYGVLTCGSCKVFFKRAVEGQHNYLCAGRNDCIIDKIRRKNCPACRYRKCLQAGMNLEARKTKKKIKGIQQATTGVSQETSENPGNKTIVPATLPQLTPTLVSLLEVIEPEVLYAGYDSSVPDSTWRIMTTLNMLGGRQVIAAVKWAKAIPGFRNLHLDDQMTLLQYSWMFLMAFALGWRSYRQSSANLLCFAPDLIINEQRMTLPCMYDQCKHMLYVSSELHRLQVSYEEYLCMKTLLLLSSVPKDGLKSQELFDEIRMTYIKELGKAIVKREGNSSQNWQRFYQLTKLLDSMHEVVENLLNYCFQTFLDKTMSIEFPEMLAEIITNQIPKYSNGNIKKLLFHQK
# Assay: Glucocorticoid Receptor Binding Assay (Glucocorticoid Receptor Competitor Assay far red kit, fluorescence polarization)
# Conditions: competition with fluorescent GR ligand Fluormone GS Far Red, 3 hours at 22° C., pH 7.4; Ki calculated from IC50 by Cheng-Prusoff
# Procedure, shortened: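 Fluorescence polarization competition with partially purified full-length human recombinant GR, stabilizing peptide and Fluormone GS Far Red tracer in screening buffer pH 7.4; 3 hours at 22° C in the dark, read at 610–660 nm. IC50 from sigmoidal fit; Ki by Cheng-Prusoff.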
row,SMILES,Ki [nM]
1,"C[C@@H](c1ccc(-c2ccc(C(=O)O)c(F)c2)cc1Cl)[C@](O)(c1cc(F)c2c(c1)N(C)C(=O)CO2)C(F)(F)F (relative stereo) [Example 46, 3′-Chloro-3-fluoro-4′-[3,3,3-trifluoro-2-(8-fluoro-4-methyl-3-oxo-3,4-dihydro-2H-benzo[1,4]oxazin-6-yl)-2-hydroxy-1-methyl-propyl]-biphenyl-4-carboxylic acid]",10.9
2,"C[C@H](c1ccc(Oc2ccc(C(=O)O)c(Cl)c2)cc1Cl)[C@@](O)(c1ccc2c(c1)N(C)C(=O)CO2)C(F)(F)F [Example 218, 2-Chloro-4-{3-chloro-4-[(1R,2R)-3,3,3-trifluoro-2-hydroxy-1-methyl-2-(4-methyl-3-oxo-3,4-dihydro-2H-benzo[1,4]oxazin-6-yl)-propyl]-phenoxy}-benzoic acid]",119
3,"C[C@@H](c1ccc(-c2ccc(F)c(C(=O)O)c2)cc1Cl)[C@](O)(c1ccc2c(c1)N(C)C(=O)CO2)C(F)(F)F (relative stereo) [Example 32, 3′-Chloro-4-fluoro-4′-[3,3,3-trifluoro-2-hydroxy-1-methyl-2-(4-methyl-3-oxo-3,4-dihydro-2H-benzo[1,4]oxazin-6-yl)-propyl]-biphenyl-3-carboxylic acid]",1.3
4,"C[C@@H](c1cc(Oc2cccc(CC(=O)O)c2)ccc1Cl)[C@](O)(c1ccc2c(c1)N(C)C(=O)CO2)C(F)(F)F (relative stereo) [Example 12, (3-{4-Chloro-3-[3,3,3-trifluoro-2-hydroxy-1-methyl-2-(4-methyl-3-oxo-3,4-dihydro-2H-benzo[1,4]oxazin-6-yl)-propyl]-phenoxy}-phenyl)-acetic acid]",8
5,"CCN1C(=O)COc2ccc([C@](O)([C@H](C)c3ccc(-c4ccc(Cl)c(C(=O)O)c4)cc3Cl)C(F)(F)F)cc21 (relative stereo) [Example 66, 4,3′-Dichloro-4′-[2-(4-ethyl-3-oxo-3,4-dihydro-2H-benzo[1,4]oxazin-6-yl)-3,3,3-trifluoro-2-hydroxy-1-methyl-propyl]-biphenyl-3-carboxylic acid]",191
6,"C[C@@H](c1ccc(-c2ccc(F)c(C(=O)O)c2)cc1Cl)[C@](O)(c1ccc2c(c1)N(C)S(=O)(=O)N2C)C(F)(F)F (relative stereo) [Example 162, 3′Chloro-4′-[2-(1,3-dimethyl-2,2-dioxo-2,3-dihydro-1H-2λ6-benzo[1,2,5]thiadiazol-5-yl)-3,3,3-trifluoro-2-hydroxy-1-methyl-propyl]-4-fluoro-biphenyl-3-carboxylic acid]",10.8
7,"C[C@H](c1cc(O)ccc1Cl)[C@@](O)(c1ccc2oc(=O)n(C)c2c1)C(F)(F)F (stereo in doubt) [Example 197, 5-[2-(2-Chloro-5-hydroxy-phenyl)-1-hydroxy-1-trifluoromethyl-propyl]-3-methyl-3H-benzooxazol-2-one]",5.8
8,"CCOC(=O)c1ccc(COc2ccc(Cl)c([C@H](C)[C@](O)(c3ccc4c(c3)N(C)C(=O)CO4)C(F)(F)F)c2)cc1 (stereo in doubt) [Example 1, 4-{4-Chloro-3-[3,3,3-trifluoro-2-hydroxy-1-methyl-2-(4-methyl-3-oxo-3,4-dihydro-2H-benzo[1,4]oxazin-6-yl)-propyl]-phenoxymethyl}-benzoic acid ethyl ester]",9.7
9,"C[C@@H](c1ccc(-c2ccc(C(=O)O)c(F)c2)cc1Cl)[C@](O)(c1ccc2c(c1)N(C)S(=O)(=O)N2C)C(F)(F)F (relative stereo) [Example 163, 3′-Chloro-4′-[2-(1,3-dimethyl-2,2-dioxo-2,3-dihydro-1H-2λ6-benzo[1,2,5]thiadiazol-5-yl)-3,3,3-trifluoro-2-hydroxy-1-methyl-propyl]-3-fluoro-biphenyl-4-carboxylic acid]",35.1
10,"C[C@@H](c1ccc(Oc2ccc(C(=O)O)c(Cl)c2)cc1Cl)[C@](O)(c1ccc2c(c1)N(C)S(=O)(=O)N2C)C(F)(F)F (relative stereo) [Example 161, 2-Chloro-4-{3-chloro-4-[2-(1,3-dimethyl-2,2-dioxo-2,3-dihydro-1H-2λ6-benzo[1,2,5]thiadiazol-5-yl)-3,3,3-trifluoro-2-hydroxy-1-methyl-propyl]-phenoxy}-benzoic acid]",3.6
11,"CC(c1ccc(O)cc1Cl)C(O)(c1ccc2c(c1)n(C)c(=O)n2C)C(F)(F)F (stereo not shown) [Example 85, 5-[2-(2-Chloro-4-hydroxy-phenyl)-1-hydroxy-1-trifluoromethyl-propyl]-1,3-dimethyl-1,3-dihydro-benzoimidazol-2-one]",0.8
12,"COC(=O)c1ccc(-c2ccc([C@@H](C)[C@@](O)(c3cccc4c3OCC(=O)N4C)C(F)(F)F)c(Cl)c2)cc1F (relative stereo) [Example 53, 3′-Chloro-3-fluoro-4′-[3,3,3-trifluoro-2-hydroxy-1-methyl-2-(4-methyl-3-oxo-3,4-dihydro-2H-benzo[1,4]oxazin-8-yl)-propyl]-biphenyl-4-carboxylic acid methyl ester]",66.1
13,"C[C@H](c1ccc(Oc2ncc(C(=O)O)cc2Cl)cc1Cl)[C@@](O)(c1ccc2c(c1)OCC(=O)N2C)C(F)(F)F (stereo in doubt) [Example 165, 5-Chloro-6-{3-chloro-4-[3,3,3-trifluoro-2-hydroxy-1-methyl-2-(4-methyl-3-oxo-3,4-dihydro-2H-benzo[1,4]oxazin-7-yl)-propyl]-phenoxy}-nicotinic acid]",0.9
14,"C[C@H](c1ccc(-c2cncnc2)cc1Cl)[C@@](O)(c1ccc2oc(=O)n(C)c2c1)C(F)(F)F (relative stereo) [Example 194, 5-[2-(2-Chloro-4-pyrimidin-5-yl-phenyl)-1-hydroxy-1-trifluoromethyl-propyl]-3-methyl-3H-benzooxazol-2-one]",0.7
15,"CC(c1ccc(Oc2ccc(C(=O)O)c(Cl)c2)cc1Cl)C(O)(c1ccc(C#N)cc1)C(F)(F)F (stereo not shown) [Example 156, 2-Chloro-4-{3-chloro-4-[2-(4-cyano-phenyl)-3,3,3-trifluoro-2-hydroxy-1-methyl-propyl]-phenoxy}-benzoic acid]",192
16,"C[C@H](c1ccc(Br)cc1Cl)[C@@](O)(c1ccc2oc(=O)n(C)c2c1)C(F)(F)F (relative stereo) [Example 116, 5-[2-(4-Bromo-2-chloro-phenyl)-1-hydroxy-1-trifluoromethyl-propyl]-3-methyl-3H-benzooxazol-2-one]",1
17,"COC(=O)c1cnc(Oc2ccc([C@@H](C)[C@@](O)(c3ccc4oc(=O)n(C)c4c3)C(F)(F)F)c(Cl)c2)cc1Cl (relative stereo) [Example 183, 4-Chloro-6-{3-chloro-4-[3,3,3-trifluoro-2-hydroxy-1-methyl-2-(3-methyl-2-oxo-2,3-dihydro-benzooxazol-5-yl)-propyl]-phenoxy}-nicotinic acid methyl ester]",3
18,"COC(=O)c1ccc(-c2ccc([C@@H](C)[C@@](O)(c3ccc4oc(=O)n(C)c4c3)C(F)(F)F)c(Cl)c2)nc1 (stereo in doubt) [Example 127, 6-{3-Chloro-4-[3,3,3-trifluoro-2-hydroxy-1-methyl-2-(3-methyl-2-oxo-2,3-dihydro-benzooxazol-5-yl)-propyl]-phenyl}-nicotinic acid methyl ester]",0.7
19,"CCOC(=O)c1cccc(Oc2ccc(Cl)c([C@H](C)[C@](O)(c3ccc4c(c3)N(C)C(=O)CO4)C(F)(F)F)c2)c1 (relative stereo) [Example 5, 3-{4-Chloro-3-[3,3,3-trifluoro-2-hydroxy-1-methyl-2-(4-methyl-3-oxo-3,4-dihydro-2H-benzo[1,4]oxazin-6-yl)-propyl]-phenoxy}-benzoic acid ethyl ester]",7.5
20,"COC(=O)c1ccc(-c2ccc([C@@H](C)[C@@](O)(c3ccc4oc(=O)n(C)c4c3)C(F)(F)F)c(Cl)c2)cn1 (relative stereo) [Example 187, 5-{3-Chloro-4-[3,3,3-trifluoro-2-hydroxy-1-methyl-2-(3-methyl-2-oxo-2,3-dihydro-benzooxazol-5-yl)-propyl]-phenyl}-pyridine-2-carboxylic acid methyl ester]",2.1
21,"C[C@H](c1ccc(-c2cncc(C(=O)O)c2)cc1Cl)[C@@](O)(c1ccc2oc(=O)n(C)c2c1)C(F)(F)F (relative stereo) [Example 191, 5-{3-Chloro-4-[3,3,3-trifluoro-2-hydroxy-1-methyl-2-(3-methyl-2-oxo-2,3-dihydro-benzooxazol-5-yl)-propyl]-phenyl}-nicotinic acid]",1.4
22,"CC(c1ccc(Oc2ccc(C(=O)O)cc2Cl)cc1Cl)C(O)(c1ccc2c(c1)n(C)c(=O)n2C)C(F)(F)F (stereo not shown) [Example 87, 3-Chloro-4-{3-chloro-4-[2-(1,3-dimethyl-2-oxo-2,3-dihydro-1H-benzoimidazol-5-yl)-3,3,3-trifluoro-2-hydroxy-1-methyl-propyl]-phenoxy}-benzoic acid]",3.7
